Reference: patent US20200237738A1, “PHARMACEUTCAL COMPOSITION FOR PREVENTING OR TREATING CANCER, CONTAINING STREPTONIGRIN AND RAPAMYCIN AS ACTIVE INGREDIENTS” (MD BIOLAB CO., LTD., priority 2017, published 2020)

Experiments:
[1] = system: renal cancer cell line (ACHN cells and CAKI-1 cells); assay: Trypan blue live cell count, renal cancer cell line (cell line not distinguished); type: cell-based; details: 48 h, read-out: cell viability relative to untreated control
Description: Specifically, after ACHN cells which are a renal cancer cell (RCC) line and CAKI-1 cells (provided by the National Cancer Center, Korea) were each inoculated into an RPM1640 medium containing 10% FBS and cultured, and then further cultured for 48 hours after being treated with 10 nM rapamycin and/or 10 nM streptonigrin in combination or alone. After the culture, cells were stained by treating respective cells with 0.4% trypan blue, and live and dead cells were sorted and counted. For the number of counted cells, the ratio of the number of relative live cells was calculated based on the number of live cells of an untreated control which had not been treated with rapamycin and streptonigrin.
Specifically, the relative ratio of the number of live cells was calculated in the same manner as in Example <2-1>, using 5 μM of pazopanib and 2 nM of streptonigrin.

[2] = system: CAKI-1 renal cancer cell line xenograft; assay: CD31 immunohistochemistry of tumors in CAKI-1 xenograft mouse model; type: in vivo, mice
Description: Specifically, a mouse model was prepared by xenografting mice with a CAKI-1 cell line which is a renal cancer cell line. And then, the formation of a tumor was observed after administering streptonigrin to the mouse model at a dose of 0.1 mg/kg or 0.2 mg/kg, and breeding the mice. After the xenografting, a biopsy tissue sample was obtained by excising tumor sites, and the level of expression of CD31-positive cells, which are a blood vessel specific marker, was confirmed by immunohistochemically staining the sample.

[3] = system: human umbilical vein endothelial cells (HUVECs); assay: BrdUrd labeling assay (proliferation) in HUVECs; type: cell-based; details: compared to siCTL control
Description: Specifically, human umbilical vein endothelial cells (HUVECs) were inoculated into a medium and cultured, and then further cultured after the medium was treated with siRNA of siCTL or siTGase2 (siTG2) and VEGF as a vascular growth promoting factor. After cells treated with the siRNA and VEGF were cultured, the medium was again treated with bromodeoxyuridine (BudUrd), a BrdUrd labeling assay was performed. For quantification, BrdUrd-positive cells were counted among the cells grown on the medium. For the counted cells, the number of BrdUrd-positive cells in the siCTL-treated and VEGF-untreated groups was used as a reference, and the number of BrdUrd cells in each experimental group was obtained as a relative percentage.

[4] = system: human umbilical vein endothelial cells (HUVECs); assay: Migration of HUVECs; type: cell-based; details: compared to siCTL control
[5] = system: human umbilical vein endothelial cells (HUVECs); assay: Angiogenesis analysis (tube segments on Matrigel) in HUVECs; type: cell-based; details: compared to siCTL control
Description: At the same time, an angiogenesis analysis was also performed. Cells were allowed to adhere to the well surface and cultured by inoculating HUVEC cells into Matrigel-coated wells. Cells were further cultured by adding VEGF and each siRNA to the medium, and then tube segments formed were counted using an angiogenesis assay kit.

Row | Compound | viability at 0.01 µM [1] [%] | number of CD31-positive cells with increasing dose ([2]; streptonigrin 0.1 mg/kg or 0.2 mg/kg) | level of CD31-positive cells relative to control ([2]; streptonigrin 0.2 mg/kg, tumor biopsy) | proliferation of cells (BrdUrd-positive cells) [3] | migration of cells [4] | angiogenesis degree (tube formation) [5]
1 | COC1=C(N)C(=O)c2nc(-c3nc(C(=O)O)c(C)c(-c4ccc(OC)c(OC)c4O)c3N)ccc2C1=O [streptonigrin] | ≥ 65 | decreased | about 20% | – | – | –
2 | VEGF | – | – | – | sharply increased | sharply increased | sharply increased
3 | CO[C@H]1C[C@@H]2CC[C@@H](C)[C@@](O)(O2)C(=O)C(=O)N2CCCC[C@H]2C(=O)O[C@H]([C@H](C)C[C@@H]2CC[C@@H](O)[C@H](OC)C2)CC(=O)[C@H](C)/C=C(\C)[C@@H](O)[C@@H](OC)C(=O)[C@H](C)C[C@H](C)/C=C/C=C/C=C/1C [rapamycin] | ≥ 90 | – | – | – | – | –
